Counter-ions that a name gives are not always drawn.

Format in all cases: biochemical
Experiment [1] addresses T1, recombinant human MAO-A (monoamine oxidase-A) (Homo sapiens, UniProt P21397).
T1 construct: purchased Sigma-Aldrich
T1 sequence (P21397 1-527): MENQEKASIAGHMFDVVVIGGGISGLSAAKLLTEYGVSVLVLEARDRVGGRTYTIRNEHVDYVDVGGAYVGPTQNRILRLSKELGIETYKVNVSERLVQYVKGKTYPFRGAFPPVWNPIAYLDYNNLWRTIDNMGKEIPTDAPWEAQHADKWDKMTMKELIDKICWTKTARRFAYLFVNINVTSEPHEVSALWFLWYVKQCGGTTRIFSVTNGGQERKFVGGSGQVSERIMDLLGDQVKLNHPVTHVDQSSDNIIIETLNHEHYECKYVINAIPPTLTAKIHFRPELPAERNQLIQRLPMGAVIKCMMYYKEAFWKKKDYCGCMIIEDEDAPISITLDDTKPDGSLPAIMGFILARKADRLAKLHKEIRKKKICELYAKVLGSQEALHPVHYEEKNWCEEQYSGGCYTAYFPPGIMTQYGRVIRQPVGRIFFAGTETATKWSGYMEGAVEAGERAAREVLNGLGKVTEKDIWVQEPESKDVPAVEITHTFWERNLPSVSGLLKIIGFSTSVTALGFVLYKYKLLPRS
Nature of the experiment: Activity on recombinant human MAO-A, Amplex Red method, 0.5 mM tyramine substrate. As to conditions: 0.5 mM tyramine, read-out: Inhibitory Activity (IC50, nM) MAO-A. On the procedure:
(§1) The compounds according to the present technology were evaluated in terms of activity on recombinant human VAP-1 (R&D systems) by measuring the level of hydrogen peroxide in horseradish peroxidase (HRP)-coupled reaction using Amplex Red Hydrogen Peroxide Assay Kit (Molecular Probes, Invitrogen, USA). The experiment was carried out at room temperature using benzylamine as a substrate. In the HRP-coupled reaction, hydrogen peroxide oxidation of 10-acetyl-3,7-dihydroxyphenoxazine (Amplex Red reagent) produces resorufin, which is a highly fluorescent compound. Briefly, the test compound was dissolved in dimethyl sulfoxide (DMSO) at a concentration of 20 mM. The dose-response assessment was made by 1:3 serial dilution in DMSO, thereby creating an 8 point curve. The concentration of the upper part was controlled according to the efficacy of the compounds, followed by dilution with a reaction buffer solution to obtain a final DMSO concentration less than 1%. To each well of a 96 black well plate, human VAP-1 purified in 50 mM sodium phosphate buffer solution (pH7.4) was added. The test compounds dissolved in DMSO were incubated with the human VAP-1 enzymes at 37° C. for 30 minutes. After 30-minute incubation, each well is added with a reaction mixture containing 200 uM Amplex Red reagent prepared from 50 mM sodium phosphate buffer solution (pH 7.4), 1 mM benzylamine, and 1 U/mL HRP. Fluorescence intensity was measured at several time points during 1-2 hours using a microplate reader (Flexstation3, Molecular Devices) under the wavelength condition exciting at 544 nm and reading the emission at 590 nm. The inhibitory effect of the compounds was measured as a decrease (%) in the signal rate as compared to the control group without any inhibitor (only diluted DMSO). Data was fixed to a logistic model with four variables and IC50 value was calculated using GraphPad Prism program.
(§2) In addition, the compounds according to the present technology were evaluated in terms of activity on a recombinant human MAO-A (monoamine oxidase-A, Sigma-Aldrich) and a recombinant human MAO-B (monoamine oxidase-B, Sigma-Aldrich) by using as substrates, 0.5 mM tyramine and 1 mM benzylamine, respectively, with a method similar to the activity evaluation method for recombinant human VAP-1. The compounds according to the present technology were also evaluated in terms of activity on a recombinant human DAO (diamine oxidase, R&D systems) by using as a substrate 1 mM putrescine with a method similar to the activity evaluation method for recombinant human VAP-1.

The target of a further experiment is T2, recombinant human VAP-1 (Homo sapiens, UniProt Q16853).
T2 construct: purchased R&D systems
T2 sequence (Q16853 1-763): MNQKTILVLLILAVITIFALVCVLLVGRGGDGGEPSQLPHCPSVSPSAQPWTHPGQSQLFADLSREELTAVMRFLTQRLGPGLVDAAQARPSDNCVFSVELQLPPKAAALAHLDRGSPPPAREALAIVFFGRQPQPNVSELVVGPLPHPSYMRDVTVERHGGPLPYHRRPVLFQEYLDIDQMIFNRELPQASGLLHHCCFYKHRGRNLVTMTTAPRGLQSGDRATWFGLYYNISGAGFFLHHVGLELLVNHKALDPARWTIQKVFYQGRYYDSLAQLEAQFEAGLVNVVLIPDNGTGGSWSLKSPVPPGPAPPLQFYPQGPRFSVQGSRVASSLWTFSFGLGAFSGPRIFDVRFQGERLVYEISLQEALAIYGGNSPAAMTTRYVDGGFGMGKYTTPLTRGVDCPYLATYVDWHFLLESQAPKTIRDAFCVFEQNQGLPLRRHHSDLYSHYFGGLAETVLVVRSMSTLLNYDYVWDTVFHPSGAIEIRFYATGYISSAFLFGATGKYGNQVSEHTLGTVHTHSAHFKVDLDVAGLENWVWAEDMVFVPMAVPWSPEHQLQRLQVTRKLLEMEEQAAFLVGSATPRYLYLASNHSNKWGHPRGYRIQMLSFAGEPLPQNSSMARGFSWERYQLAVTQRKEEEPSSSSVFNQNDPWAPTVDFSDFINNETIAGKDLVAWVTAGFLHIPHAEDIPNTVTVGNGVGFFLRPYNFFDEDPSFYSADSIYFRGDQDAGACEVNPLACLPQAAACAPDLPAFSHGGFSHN
Nature of the experiment: Activity on recombinant human VAP-1, Amplex Red HRP-coupled hydrogen peroxide assay, benzylamine substrate. As to conditions: recombinant human VAP-1, benzylamine substrate, 30 min preincubation at 37° C.; read-out: Inhibitory Activity (IC50, nM) human VAP-1. As to the method:
as §1

Experiment [2] has as its target T3, recombinant human MAO-B (monoamine oxidase-B) (Homo sapiens, UniProt P27338).
T3 construct: purchased Sigma-Aldrich
T3 sequence (P27338 1-520): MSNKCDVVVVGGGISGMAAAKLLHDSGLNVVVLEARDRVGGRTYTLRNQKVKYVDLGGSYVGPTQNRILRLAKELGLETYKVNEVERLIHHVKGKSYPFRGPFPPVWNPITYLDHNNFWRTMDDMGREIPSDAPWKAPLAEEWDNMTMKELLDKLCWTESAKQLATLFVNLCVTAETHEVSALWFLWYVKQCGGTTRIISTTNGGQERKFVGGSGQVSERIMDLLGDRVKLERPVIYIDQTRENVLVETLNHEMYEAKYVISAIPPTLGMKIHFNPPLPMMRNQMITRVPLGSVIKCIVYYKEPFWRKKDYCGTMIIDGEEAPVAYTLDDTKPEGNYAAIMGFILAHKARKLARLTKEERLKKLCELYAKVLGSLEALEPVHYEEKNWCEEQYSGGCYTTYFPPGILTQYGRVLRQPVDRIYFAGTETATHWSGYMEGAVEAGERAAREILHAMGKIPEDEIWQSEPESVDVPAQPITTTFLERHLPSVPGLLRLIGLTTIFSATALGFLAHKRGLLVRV
In words: Activity on recombinant human MAO-B, Amplex Red method, 1 mM benzylamine substrate. The note with it: 1 mM benzylamine, read-out: Inhibitory Activity (IC50, nM) MAO-B. On the procedure:
as §1, §2

Experiment [3] has as its target T4, recombinant human DAO (diamine oxidase) (Homo sapiens, UniProt P19801).
T4 construct: purchased R&D systems
T4 sequence (P19801 20-751): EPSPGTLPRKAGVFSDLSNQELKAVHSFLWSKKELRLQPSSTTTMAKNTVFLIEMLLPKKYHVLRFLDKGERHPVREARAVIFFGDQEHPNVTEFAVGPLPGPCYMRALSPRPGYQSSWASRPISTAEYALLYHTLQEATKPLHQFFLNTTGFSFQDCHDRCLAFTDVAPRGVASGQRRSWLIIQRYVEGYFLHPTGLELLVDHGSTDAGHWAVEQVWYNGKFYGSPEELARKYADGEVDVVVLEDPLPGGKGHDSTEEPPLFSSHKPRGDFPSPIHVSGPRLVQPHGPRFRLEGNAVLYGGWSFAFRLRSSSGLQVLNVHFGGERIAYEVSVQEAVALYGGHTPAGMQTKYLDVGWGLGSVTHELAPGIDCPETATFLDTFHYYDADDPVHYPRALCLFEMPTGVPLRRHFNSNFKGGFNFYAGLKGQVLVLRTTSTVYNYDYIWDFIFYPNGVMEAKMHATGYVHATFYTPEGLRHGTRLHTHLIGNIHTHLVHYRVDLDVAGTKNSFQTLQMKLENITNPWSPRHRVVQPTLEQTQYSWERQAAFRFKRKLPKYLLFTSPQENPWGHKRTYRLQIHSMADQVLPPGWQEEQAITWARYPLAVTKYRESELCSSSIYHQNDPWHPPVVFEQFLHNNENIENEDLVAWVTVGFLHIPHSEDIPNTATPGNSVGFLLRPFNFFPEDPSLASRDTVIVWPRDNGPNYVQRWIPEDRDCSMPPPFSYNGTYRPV
Nature of the experiment: Activity on recombinant human DAO, Amplex Red method, 1 mM putrescine substrate. As to conditions: recombinant human DAO, 1 mM putrescine; * = between 10 and 100 nM, ** = between 300 and 1000 nM; read-out: Inhibitory Activity (IC50, nM) DAO. On the procedure:
as §1, §2

One may read the IC50 as the concentration that inhibits the measured activity by half. In the case of `NC/C(=C\F)Cn1ncn(-c2ccc(Br)cc2)c1=O` [Example 2, 2-[(2E)-2-(aminomethyl)-3-fluoroprop-2-en-1-yl]-4-(4-bromophenyl)-2,4-dihydro-3H-1,2,4-triazol-3-one], the IC50 turned out to be 2900 nM in experiment [1], 0.9 nM on recombinant human VAP-1, 86 nM in experiment [2] and 120 nM in experiment [3].

In the case of `NC/C(=C/F)Cn1ncn(-c2cccc(Br)c2)c1=O` [Example 3, 2-[(2Z)-2-(aminomethyl)-3-fluoroprop-2-en-1-yl]-4-(3-bromophenyl)-2,4-dihydro-3H-1,2,4-triazol-3-one hydrochloride], the IC50 came to 3500 nM in experiment [1], 2.5 nM on recombinant human VAP-1, 121 nM in experiment [2] and 542 nM in experiment [3].

`NC/C(=C\F)Cn1ncn(-c2cccc(Br)c2)c1=O` [Example 4, 2-[(2E)-2-(aminomethyl)-3-fluoroprop-2-en-1-yl]-4-(3-bromophenyl)-2,4-dihydro-3H-1,2,4-triazol-3-one hydrochloride]: the IC50 in experiment [1] is over 100000 nM; on recombinant human VAP-1, 1.2 nM; in experiment [2] it was 175 nM; in experiment [3] it was 90 nM.

For the compound `NC/C(=C/F)Cn1ncn(-c2ccc(F)cc2)c1=O` [Example 5, 2-[(2Z)-2-(aminomethyl)-3-fluoroprop-2-en-1-yl]-4-(4-fluorophenyl)-2,4-dihydro-3H-1,2,4-triazol-3-one], the IC50 came to 1600 nM in experiment [1], 3.8 nM on recombinant human VAP-1, 260 nM in experiment [2] and 1100 nM in experiment [3].

As to `NC/C(=C\F)Cn1ncn(-c2ccc(F)cc2)c1=O` [Example 6, 2-[(2E)-2-(aminomethyl)-3-fluoroprop-2-en-1-yl]-4-(4-fluorophenyl)-2,4-dihydro-3H-1,2,4-triazol-3-one hydrochloride], the IC50 in experiment [1] is over 100000 nM; at recombinant human VAP-1, 3.7 nM; in experiment [2], over 10000 nM; in experiment [3], 1100 nM.

Consider `NC/C(=C/F)Cn1ncn(-c2ccc(OCc3ccccc3)cc2)c1=O` [Example 7, 2-[(2Z)-2-(aminomethyl)-3-fluoroprop-2-en-1-yl]-4-[4-(benzyloxy)phenyl]-2,4-dihydro-3H-1,2,4-triazol-3-one], for which the IC50 came to 2100 nM in experiment [1], 0.88 nM at recombinant human VAP-1, 8 nM in experiment [2] and 47 nM in experiment [3].

Turning to `NC/C(=C\F)Cn1ncn(-c2ccc(OCc3ccccc3)cc2)c1=O` [Example 8, 2-[(2E)-2-(aminomethyl)-3-fluoroprop-2-en-1-yl]-4-[4-(benzyloxy)phenyl]-2,4-dihydro-3H-1,2,4-triazol-3-one hydrochloride], the IC50 is 54000 nM in experiment [1], 0.6 nM at recombinant human VAP-1, 10 nM in experiment [2] and 38 nM in experiment [3].

For `NC/C(=C/F)Cn1ncn(-c2ccc(F)c(F)c2)c1=O` [Example 9, 2-[(2Z)-2-(aminomethyl)-3-fluoroprop-2-en-1-yl]-4-(3,4-difluorophenyl)-2,4-dihydro-3H-1,2,4-triazol-3-one], the IC50 in experiment [1] worked out at 2100 nM; on recombinant human VAP-1, 5.4 nM; in experiment [2], 85 nM; in experiment [3] it was 290 nM.

Turning to `NC/C(=C\F)Cn1ncn(-c2ccc(F)c(F)c2)c1=O` [Example 10, 2-[(2E)-2-(aminomethyl)-3-fluoroprop-2-en-1-yl]-4-(3,4-difluorophenyl)-2,4-dihydro-3H-1,2,4-triazol-3-one hydrochloride], the IC50 in experiment [1] is over 100000 nM; at recombinant human VAP-1 it was 2.4 nM; in experiment [2], 1610 nM; in experiment [3], 100 nM.

Take `NC/C(=C/F)Cn1ncn(-c2ccc(Br)cc2F)c1=O` [Example 11, 2-[(2Z)-2-(aminomethyl)-3-fluoroprop-2-en-1-yl]-4-(4-bromo-2-fluorophenyl)-2,4-dihydro-3H-1,2,4-triazol-3-one hydrochloride]: the IC50 in experiment [1] came to 200 nM; at recombinant human VAP-1, 1.5 nM; in experiment [2], 12 nM; in experiment [3], 209 nM.

The values are drawn from US11492335B2, “Aryl or heteroaryl triazolone derivatives or salts thereof, or pharmaceutical compositions comprising the same” (YUHAN CORPORATION, priority 2018, dated 2022).
